{
  "source": "patent US5460697A",
  "about": "“Method of pulping wood chips with a fungi using sulfite salt-treated wood chips” (priority 1994, dated 1995)",
  "key": {"[1]": {"tested_on": "indigenous microorganisms", "test": "Effect of sulfite salts on indigenous microorganisms of unsterilized wood chips (plating)", "format": "cell-based, indigenous microorganisms of unsterilized aspen wood chips", "method": "Aspen wood chips (50 g O.D. basis) were soaked in 500 ml of water containing either 0 mg, 781 mg or 1562 mg sodium bisulfite for about 1 hour at room temperature. After soaking, water was drained from the chips.\nDuring the 1 hour soaking the chips soaked up about 31 ml of water. Therefore, the final moisture content of wood was about 61% (wet weight basis) and the final concentration of each chemical on water basis was about 0 μg/ml, 600 μg/ml and 1200 μg/ml.\nThree chips were pulled randomly from each flask and plated on potato dextrose agar and tryptic soy agar plates. These plates were incubated at 27° C. for 24 or 27 h and the contaminants were visually observed.\nA panel of other sulfur-containing chemicals were analyzed for their ability to inhibit the growth of indigenous microorganisms on unsterilized wood chips in the manner described above. Table 2 describes the various concentrations of these chemicals and the percent inhibition relative to control plates observed."}, "[2]": {"tested_on": "Phanerochaete chrysosporium BKM-F-1767", "test": "Effect of sodium bisulfite on radial growth and mycelial dry weight of P. chrysosporium", "format": "cell-based", "method": "(§1) 2% agar was added to the medium. The medium was autoclaved for 15 min. and the medium was poured into petri dishes. These plates were then inoculated with a plug cut into 8-mm diameter plugs from a petri dish containing a 5-day-old culture of P. chrysosporium or a petri dish containing a 10-day-old culture of another white-rot fungi. P. chrysosporium-inoculated plates were incubated at 39° C. Plates inoculated with other fungi were incubated at 27° C."}, "[3]": {"tested_on": "C. subvermispora", "test": "Growth of C. subvermispora on sodium bisulfite-treated chips", "format": "cell-based", "conditions": "for growth of C. subvermispora at harvest (in words): fungus-treated chips with sodium bisulfite", "method": "To prepare a liquid inoculum of C. subvermispora, potato dextrose broth (43.20 g) and yeast extract (13.08 g) were added to 1800 ml of distilled water and mixed well. 300 ml of this medium was poured into six 2800-ml flasks. Each flask was autoclaved for 20 min. at 121° C. After cooling to room temperature, each flask was inoculated with 30 plugs cut into 13-mm diameter plugs from a 10-day old fungal culture on a potato dextrose agar plate. The flasks were then incubated at 27° C. at 65% relative humidity for 10-15 days. Prior to use, the flasks containing the fungal biomass were decanted and washed with sterile distilled water to remove excess medium from the fungus. The fungal biomass was then placed in distilled water and blended in a Waring blender (VWR scientific) twice for 15 seconds each time at high speed, following which distilled water was added to the suspension to make the total volume 500 ml. About 100 grams of this suspension (2.61 g dry weight) was added to each bioreactor containing about 1600 grams of aspen chips measured on a dry weight basis prepared as described below. The blended mycelium was dumped onto the chips and mixed.\nThree batches of aspen wood chips were prepared, each batch containing 1800 g dry weight of chips. One batch was soaked in 18 kg of water containing no sodium bisulfite. A second batch was soaked in 18 kg of water containing 28.125 g of sodium bisulfite. A third batch was soaked in 18 kg of water containing 56.250 g of sodium bisulfite. After the chips had soaked, we performed our experiments on 1600 g of chips (dry weight basis). The soaking was done at room temperature for about 1 hour. […] Based on the amount of water or sodium bisulfite solution absorbed by the chips, we calculated that 1600 g dry weight of chips retained about 600 or 1200 μg/ml of sodium bisulfite. […]\nWe repeated the experiment described above with a four-week incubation. […] Based on the amount of water or sodium bisulfite solution soaked, we calculated that each batch of 1600 g dry weight of chips retained about 1300 μg/ml of sodium bisulfite. […]"}, "[4]": {"tested_on": "white-rot fungi", "test": "Effect of sodium bisulfite on radial growth of white-rot fungi (summary)", "format": "cell-based, white-rot fungi listed in Table 7", "conditions": "500 μg/ml, 72 and 96 h", "method": "as §1"}},
  "note": "Entries after “also recorded” stand apart in the source; their conditions may differ.",
  "data": [
    {"smiles": "O=S([O-])O.[Na+]", "note": "[Sodium Bisulfite]", "values": [
      {"measurement": "Inhibition Relative to control", "setting": "[1]; 600 μg/ml", "result": 95, "unit": "%"},
      {"measurement": "Inhibition Relative to control", "setting": "[1]; 1200 μg/ml", "result": 100, "unit": "%"},
      {"measurement": "inhibition of contaminants (in words)", "setting": "[1]; 1200 μg/ml, potato dextrose and tryptic soy agar plates", "result": "completely inhibited all contaminants; also recorded: no colonies on the plate"},
      {"measurement": "first test: whether the salt inhibits growth of indigenous microorganisms", "setting": "[1]; pass / not pass", "result": "passed the first test"},
      {"measurement": "inhibition of growth of indigenous microorganisms (in words)", "setting": "[1]; unsterilized wood chips, overall statement", "result": "successfully inhibited the growth of microorganisms; also recorded: inhibited all wood contaminants; also recorded: inhibited the growth of indigenous microorganisms"},
      {"measurement": "Mycelial Dry Weight 36 ± SD", "setting": "[2]; 100 μg/ml", "result": "21 ± 3", "unit": "mg"},
      {"measurement": "Radial Growth 24 h ± SD", "setting": "[2]; 100 μg/ml", "result": "4.30 ± .26 cm"},
      {"measurement": "Radial Growth 36h ± SD", "setting": "[2]; 100 μg/ml", "result": "7.52 ± .27 cm"},
      {"measurement": "Mycelial Dry Weight 36 ± SD", "setting": "[2]; 250 μg/ml", "result": "39 ± 8", "unit": "mg"},
      {"measurement": "Radial Growth 24 h ± SD", "setting": "[2]; 250 μg/ml", "result": "5.16 ± .28 cm"},
      {"measurement": "Radial Growth 36h ± SD", "setting": "[2]; 250 μg/ml", "result": "8.62 ± .20 cm"},
      {"measurement": "Mycelial Dry Weight 36 ± SD", "setting": "[2]; 500 μg/ml", "result": "36 ± 6", "unit": "mg"},
      {"measurement": "Radial Growth 24 h ± SD", "setting": "[2]; 500 μg/ml", "result": "5.07 ± .25 cm"},
      {"measurement": "Radial Growth 36h ± SD", "setting": "[2]; 500 μg/ml", "result": "8.68 ± .09 cm"},
      {"measurement": "Mycelial Dry Weight 36 ± SD", "setting": "[2]; 1000 μg/ml", "result": "10 ± 2", "unit": "mg"},
      {"measurement": "Radial Growth 24 h ± SD", "setting": "[2]; 1000 μg/ml", "result": "1.15 ± .22 cm"},
      {"measurement": "Radial Growth 36h ± SD", "setting": "[2]; 1000 μg/ml", "result": "2.88 ± .42 cm"},
      {"measurement": "dry weight of the fungus (in words)", "setting": "[2]; 250 or 500 μg/ml", "result": "increased"},
      {"measurement": "radial growth (in words)", "setting": "[2]; 250 or 500 μg/ml, 24 and 36 h", "result": "increased the radial growth of P. chrysosporium"},
      {"measurement": "growth of white-rot fungi such as P. chrysosporium (in words)", "setting": "[2]; summary statement", "result": "promoted the growth of white-rot fungi"},
      {"measurement": "growth of C. subvermispora at harvest (in words)", "setting": "[3]; 2 weeks", "result": "heavy growth of C. subvermispora"},
      {"measurement": "growth of C. subvermispora at harvest (in words)", "setting": "[3]; 4 weeks", "result": "heavy growth of C. subvermispora"},
      {"measurement": "growth of white-rot fungi such as C. subvermispora (in words)", "setting": "[3]; treatment of wood chips, summary", "result": "promoted the growth of white-rot fungi"},
      {"measurement": "radial growth (in words)", "setting": "[4]", "result": "increased the radial growth"}
    ]}
  ]
}
